Earlier results in patent US20030087789A1, “Emulsion containing a plant extract, method for producing said emulsion and for obtaining a plant extract” (priority 2000, published 2003).

What was measured:
Escherichia coli = conditions: intestinal Escherichia coli

SMILES: C=C(C)[C@@H]1CC[C@]2(CO)CC[C@]3(C)[C@H](CC[C@@H]4[C@@]5(C)CC[C@H](O)C(C)(C)[C@@H]5CC[C@]43C)[C@@H]12 [betulin]
- bacteriostatic and bactericidal effect (Staphylococcus aureus): bacteriostatic and bactericidal effect
- bacteriostatic and bactericidal effect (Salmonella typhi): bacteriostatic and bactericidal effect
- bacteriostatic and bactericidal effect (Shigella flexneri): bacteriostatic and bactericidal effect
- bacteriostatic and bactericidal effect (Escherichia coli): bacteriostatic and bactericidal effect
- solubility in cold petroleum ether (cold petroleum ether (C5-C8 CH)): practically insoluble
- solubility in dichloromethane, chloroform and cold organic solvents (dichloromethane, chloroform and cold organic solvents): only slightly soluble
- solubility in pyridine and tetrahydrofuran (pyridine and tetrahydrofuran): soluble
- solubility in water (water): practically insoluble
- solubility in water or water-alcohol mixtures (water or water-alcohol mixtures (up to 60% alcohol)): insoluble
